{"source": "patent US10426740B1", "about": "“Compositions and methods to inhibit stem cell and progenitor cell binding to lymphoid tissue and for regenerating germinal centers in lymphatic tissues” (AVM BIOTECHNOLOGY, LLC, priority 2010, dated 2019)", "key": {"[1]": {"test_system": "tumor necrosis factor-alpha", "conditions": "cited from earlier work"}, "[2]": {"test_system": "spleen", "assay": "In vivo sequestration of injected CTG-labeled MNC in the spleen, flow cytometry (Example 9)", "parameters": "species or system mouse", "conditions": "cells injected day 7, one hour"}, "[3]": {"test_system": "osteoarthritis (OA), tendon injury, or osteochondral defect", "assay": "Equine outcome after stem cell (MSC) injection with dexamethasone pretreatment (Example 16)", "assay_type": "in vivo", "conditions": "5.7 mg/kg HED, one horse", "experimental": "Approximately 48 hours later male or female horses with osteoarthritis (OA), tendon injury, or osteochondral defect were intra-articularly (IA) or intra-tendon injected with either allogeneic adipose-derived mesenchymal stem cells (MSCs) or with autologous, bone marrow derived culture expanded MSCs."}, "[4]": {"test_system": "spleen", "assay": "Splenic sequestration and circulating numbers of injected CTG-labeled stem cells, flow cytometry (Example 14)", "assay_type": "in vivo, mouse", "conditions": "1 mg IP days -7, -4, -1 (HED 7.4 mg/kg)", "description": "Control mice (n=4) were IP injected with the same volume per body weight of 70% ethanol diluted 1:10 in PBS. Sixty minutes later the mice were sacrificed by exsanguination and spleens and blood collected for flow cytometry. The spleens were dissociated to single cell suspensions prior to flow cytometry. CTG-labeled bone marrow mononuclear stem cells were detected in the spleen and lysed whole blood using flow cytometry."}, "[5]": {"test_system": "active germinal centers in the spleen", "assay": "Dexamethasone pretreatment: ex vivo stem cell binding to splenic sections, spleen weight, MNC and germinal centers (Example 8)"}, "[6]": {"test_system": "germinal center", "assay": "Germinal center intensity by FITC-PNA in spleen (Example 18)", "assay_type": "in vivo, mouse", "conditions": "about 48 hours, controls approximately 40", "experimental": "The mice were sacrificed by exsanguination and then residual blood cells flushed out with 5 U heparin/ml PBS via retrograde flush into the thoracic jugular vein. The spleens were removed, weighed wet, and then fixed in 10% formalin. Subsequently the spleens were sectioned via proprietary methods and then incubated with FITC-PNA at 4 deg.C for 24 hours, washed, placed on slides and immunofluorescent images were captured. Metamorph software was used to quantify the immunofluorescent signal. Average germinal center intensity measured by FITC-PNA average intensity was approximately 40 in controls, reduced to about 33 at the 6 mg/kg HED, reduced to about 22.5 at the 9 mg/kg HED, and further reduced to about 15 at the 11 mg/kg HED."}, "[7]": {"test_system": "blood lymphocytes", "assay": "Blood lymphocytes (CBC) after oral dexamethasone (Example 20)", "assay_type": "in vivo, mouse", "conditions": "placebo about 1700"}, "[8]": {"test_system": "equine bone marrow MSC", "assay": "Osteocyte, chondrocyte and adipocyte differentiation of MSC from treated horses (Example 21)", "assay_type": "in vivo, horse", "conditions": "for osteocyte differentiation: not different", "experimental": "1 g of Alizarin Red S (Sigma-Aldrich) was mixed with 50 ml of DI water to make a 50 ml solution of Alizarin Red S 2%. The pH of the Alizarin Red S solution was adjusted to 4.1-4.3 using ammonium hydroxide. The solution was filtered through a vacuum filtration system, then transferred to a 50 ml conical tube and stored protected from light.\n250 mg of Oil Red O (Sigma-Aldrich) was added to 50 mL of isopropanol to make a 50 ml solution of Oil Red O 0.5%. The solution was mixed well, then filtered through a vacuum filtration system. After that, it was stored as a stock solution in a 50 ml conical tube wrapped in aluminum foil protected from light. On the staining day, 3 parts of stock Oil Red O 0.5% were mixed with 2 parts of DI water to make a working stock solution. This solution was incubated for 10 min and the forming precipitate removed by filtration through a sterile filter.\n50 mg of Safranin O (Sigma-Aldrich) was added to 50 ml of DI water to make a 50 ml solution of Safranin O 0.1%. The solution was mixed well, then filtered through a vacuum filtration system. After that, it was stored in 50 ml conical tube protected from light.\nAfter BM withdrawal from each vial for the Giemsa staining assay, another 100 μl of BM was withdrawn, and plated in CFU-F assay media (10 ml medium per T25 flasks; 2× total) 36 hours after it was extracted from the horse. MSCs were passaged in MesenCult™ MSC Basal Medium (Human; growth medium; including stimulatory supplement) until passage number 3 (P3). After trypsinization of the cells, they were mixed with an equivalent volume of growth medium, centrifuged (230 g for 3 min at RT) and resuspended in 1 ml of growth medium. Cells were counted and seeded using 30,000 cells/well of a 12 well plate (30,000 cells/well seeded in 3 wells; T1, T2 and one negative control). The seeded cells (P4) of T1 and T2 were left expanding in growth medium for two days, followed by a medium change into osteocyte differentiation medium (Stem Pro Osteocyte Differentiation Basal Medium and supplement; Gibco). The latter was changed every 2-3 days for all the plates. Morphological changes were documented by taking images using the EVOS XL Core microscope. Day 1 corresponds to MSCs being in differentiation medium for 24 h, Day 2 for 48 h etc. Two time points (T1: Day 4 and T2: Day 7 with one 12-well plate for both time points) were chosen for the osteocyte staining (Alizarin Red S) to assess the onset as well as the differentiation extent of MSCs from AVM0703 vs Placebo treated horses. […]\nMSCs were passaged in MesenCult™ MSC Basal Medium (Human; including stimulatory supplement) until passage number 4 (P4). […] Cells were counted and seeded using a density of 80,000 cells/well of a 12 well plate (80,000 cells/well seeded in 3 wells; T1, T2 and one negative control). […]"}, "[9]": {"test_system": "equine bone marrow MSC", "assay": "Equine bone marrow CFU-F assay after IV dexamethasone (Example 21)", "assay_type": "in vivo, horse", "conditions": "Day 14 after plating; 3.18 mg/kg (HED 6 mg/kg) IV; placebo about 46.6"}, "[10]": {"conditions": "single 1 mg, 7 days prior to harvest"}}, "data": [{"smiles": "Nc1cccc2c1CN(C1CCC(=O)NC1=O)C2=O", "note": "(stereo not drawn) [Lenalidomide]", "values": [{"measurement": "potency in inhibiting tumor necrosis factor-alpha relative to thalidomide", "setting": "[1]", "result": "50,000 times"}]}, {"smiles": "C[C@@H]1C[C@H]2[C@@H]3CCC4=CC(=O)C=C[C@]4(C)[C@@]3(F)[C@@H](O)C[C@]2(C)[C@@]1(O)C(=O)CO", "note": "[dexamethasone]", "values": [{"measurement": "reduction of MNC CTG total cell number accumulation in the spleen", "setting": "[2]; 3 mgs total (1 mg ip day 0, 2 and 5)", "result": "approximately 70%"}, {"measurement": "reduction of MNC CTG total cell number accumulation in the spleen", "setting": "[2]; total 2 mgs (1 mg ip day 0 and day 4)", "result": "33-43%"}, {"measurement": "return to work, tendon injury (DDFT grade 3)", "setting": "[3]", "result": "≤ 6", "unit": "months"}, {"measurement": "circulating numbers of CTG-stem cells", "setting": "[4]; controls 4,500", "result": "49,000 CTG-stem cells"}, {"measurement": "splenic sequestration 60 minutes after injection", "setting": "[4]; controls 665,000", "result": "285,000 CTG-stem cells"}, {"measurement": "reduction of mononuclear stem cell binding to spleen sections", "setting": "[5]; day 7 after single 1 mg IP", "result": "30-40%"}, {"measurement": "increase of percentage of stem cells within MNC fractions from whole blood or bone marrow compared to control (average)", "setting": "[5]; [10]", "result": 32, "unit": "%"}, {"measurement": "reduction of PNA labeled germinal centers", "setting": "[5]; [10]", "result": "up to 24%"}, {"measurement": "reduction of average circulating MNC number", "setting": "[5]; [10]", "result": 34, "unit": "%"}, {"measurement": "reduction of spleen weights (average)", "setting": "[5]; [10]", "result": 22, "unit": "%"}, {"measurement": "average germinal center intensity measured by FITC-PNA average intensity", "setting": "[6]; 6 mg/kg HED IP", "result": "about 33"}, {"measurement": "average germinal center intensity measured by FITC-PNA average intensity", "setting": "[6]; 9 mg/kg HED IP", "result": "about 22.5"}, {"measurement": "average germinal center intensity measured by FITC-PNA average intensity", "setting": "[6]; 11 mg/kg HED IP", "result": "about 15"}, {"measurement": "lymphocytes", "setting": "[7]; single acute HED 12 mg/kg oral on day -2", "result": "about 170 per microliter"}, {"measurement": "lymphocytes", "setting": "[7]; two repeat doses HED 6 mg/kg oral, day -2 and day -1", "result": "about 1000 per microliter"}, {"measurement": "osteocyte differentiation", "setting": "[8]; day 4 of assay, placebo 1.75", "result": 3.19}, {"measurement": "chondrocyte culture area", "setting": "[8]; day 6 of assay, placebo 23.4%", "result": 40.1, "unit": "%"}, {"measurement": "osteocyte differentiation", "setting": "[8]; day 7 of assay, placebo 4.29", "result": 4.58}, {"measurement": "adipocyte numbers", "setting": "[8]; day 24 of assay, placebo 4.8, no difference", "result": 7.4, "unit": "adipocytes"}, {"measurement": "MSC number (CFU-F)", "setting": "[9]", "result": "about 78.8 CFU-F"}]}]}
